Source: patent US9371337B2, “β-lactamase inhibitors” (The Regents of the University of California, priority 2011, dated 2016)

Assays:
[1] = system: K. pneumoniae producing the plasmid-mediated class C β-lactamase DHA-1; test: MIC of third-generation cephalosporins alone and with compounds 4 or 9 (Table 3); format: cell-based, Klebsiella pneumoniae; conditions: antibiotic alone
Excerpt: (§1) Antimicrobial activity was investigated quantitatively to determine the minimum inhibitory concentrations (MICs) of the β-lactam/inhibitor combination necessary to inhibit the bacterial growth (Table 3). The MICs of β-lactams alone against the strains corresponded to a high level of resistance according to Clinical and Laboratory Standards Institute (CLSI) standards. (Clinical and Laboratory Standards Institute, Performance standards for antimicrobial susceptibility testing, 20th Informational Supplement, M100-S20 2010) The compounds had no measurable antibiotic activity when used alone.
(§2) Susceptibility testing was performed and interpreted following the guidelines of CLSI. (Clinical and Laboratory Standards Institute, Performance standards for antimicrobial susceptibility testing, 20th Informational Supplement, M100-S20 2010) The compounds were dissolved in 50% DMSO, and dilutions were performed using Muller-Hinton medium. An adequate final concentration was obtained to determine the minimum inhibitory concentrations (MICs). The concentration of DMSO was maintained below 5%. The inhibitors were tested for synergy with the third-generation β-lactams ceftazidime and cefotaxime against several clinical bacteria. […] Each value reported reflects the average of three independent experiments. […] A Klebsiella pneumoniae isolate produced the inducible plasmid-mediated class C enzyme DHA-1. The Friedman's test and the Wilcoxon signed rank test were used to compare MIC values. Statistical significance was established at p<0.05.

[2] = system: E. coli producing plasmid-mediated class A β-lactamase CTX-M-14; test: as above; format: cell-based, Escherichia coli; conditions: antibiotic alone
Excerpt: as §1, §2

[3] = system: E. coli overproducing chromosomally-mediated class C β-lactamase; test: as above; format: cell-based, Escherichia coli; conditions: antibiotic alone
Excerpt: as §1, §2

[4] = system: C. freundii overproducing chromosomally-mediated class C β-lactamase; test: as above; format: cell-based, Citrobacter freundii; conditions: antibiotic alone
Excerpt: as §1, §2

[5] = system: E. coli 146, AmpC-overproducing; test: MIC of third-generation cephalosporins alone and with compounds (Table 6); format: cell-based, Escherichia coli; conditions: antibiotic alone
Description: (§3) The anti-resistance activity of inhibitors was investigated by the determination of the minimum inhibitory concentrations (MICs) of the β-lactam/inhibitor combination necessary to inhibit the growth of clinically-isolated bacteria resistant to third-generation cephalosporins via expression of class A or class C β-lactamases (Table 6).
(§4) Susceptibility testing was performed and interpreted following the guidelines of CLSI. (Clinical and Laboratory Standards Institute, Performance standards for antimicrobial susceptibility testing, 20th Informational Supplement, M100-S20 2010) The compounds were dissolved in 50% DMSO, and dilutions were performed using Muller-Hinton medium. An adequate final concentration was obtained to determine the minimum inhibitory concentrations (MICs). The concentration of DMSO was maintained below 5%. The inhibitors were tested for synergy with the third-generation β-lactams ceftazidime and cefotaxime against several clinical bacteria. The ratio of β-lactams to inhibitors was 1:4. Each value reported reflects the average of three independent experiments. […] The Friedman's test and the Wilcoxon signed rank test were used to compare MIC values. Statistical significance was established at p<0.05.
(§5) Table 6. MICs (μg/ml) of third-generation cephalosporins alone and in association with the compounds (ratio 1/4) for clinical bacteria. CTX, cefotaxime and CAZ, ceftazidime. ^1, AmpC-overproducing bacteria; ^2, CTX-M-14-producing E. coli; ^3, KPC-2-producing K. pneumoniae; ^4, OXA-48-producing K. pneumoniae; ^5, NDM-1-producing C. freundii.

[6] = system: CTX-M-14-producing E. coli; test: as above; format: cell-based, Escherichia coli; conditions: antibiotic alone
Description: as §3, §4, §5

[7] = system: E. coli 144, AmpC-overproducing; test: as above; format: cell-based, Escherichia coli; conditions: antibiotic alone
Description: as §3, §4, §5

[8] = system: E. coli R1, AmpC-overproducing; test: as above; format: cell-based, Escherichia coli; conditions: antibiotic alone
Description: as §3, §4, §5

[9] = system: E. coli, AmpC-overproducing; test: as above; format: cell-based, Escherichia coli; conditions: antibiotic alone
Description: as §3, §4, §5

[10] = system: E. coli 142, AmpC-overproducing; test: as above; format: cell-based, Escherichia coli; conditions: antibiotic alone
Description: as §3, §4, §5

[11] = system: E. coli 145, AmpC-overproducing; test: as above; format: cell-based, Escherichia coli; conditions: antibiotic alone
Description: as §3, §4, §5

[12] = system: K. pneumoniae, AmpC-overproducing; test: as above; format: cell-based, Klebsiella pneumoniae; conditions: antibiotic alone
Description: as §3, §4, §5

[13] = system: OXA-48-producing K. pneumoniae; test: as above; format: cell-based, Klebsiella pneumoniae; conditions: antibiotic alone
Description: as §3, §4, §5

[14] = system: E. cloacae, AmpC-overproducing; test: as above; format: cell-based, Enterobacter cloacae; conditions: antibiotic alone
Description: as §3, §4, §5

[15] = system: E. cloacae 135, AmpC-overproducing; test: as above; format: cell-based, Enterobacter cloacae; conditions: antibiotic alone
Description: as §3, §4, §5

[16] = system: E. cloacae overproducing chromosomally-mediated class C β-lactamase; test: MIC of third-generation cephalosporins alone and with compounds 4 or 9 (Table 3); format: cell-based, Enterobacter cloacae; conditions: antibiotic alone
Excerpt: as §1, §2

[17] = system: P. aeruginosa, AmpC-overproducing; test: MIC of third-generation cephalosporins alone and with compounds (Table 6); format: cell-based, Pseudomonas aeruginosa; conditions: antibiotic alone
Description: as §3, §4
Table 6. MICs (μg/ml) of third-generation cephalosporins alone and in association with the compounds (ratio 1/4) for clinical bacteria. […]

[18] = system: P. aeruginosa overproducing chromosomally-mediated class C β-lactamase; test: MIC of third-generation cephalosporins alone and with compounds 4 or 9 (Table 3); format: cell-based, Pseudomonas aeruginosa; conditions: antibiotic alone
Excerpt: as §1, §2

[19] = system: C. freundii 101, AmpC-overproducing; test: MIC of third-generation cephalosporins alone and with compounds (Table 6); format: cell-based, Citrobacter freundii; conditions: antibiotic alone
Description: as §3, §4, §5

[20] = system: C. freundii, AmpC-overproducing; test: as above; format: cell-based, Citrobacter freundii; conditions: antibiotic alone
Description: as §3, §4, §5

[21] = system: NDM-1-producing C. freundii; test: as above; format: cell-based, Citrobacter freundii; conditions: antibiotic alone
Description: as §3, §4, §5

[22] = system: AmpC-overproducing Escherichia coli strain 4; test: Mouse model of bacteremia and sepsis, survival; format: in vivo, OF1 mice; conditions: 120 h post infection; ip at 0.5, 3.5, 6.5 h; imipenem 50 mg/kg, cefotaxime 50 mg/kg, cefotaxime:CR161 50:200 mg/kg
Description: FIG. 17. Percentage of survival of mice infected with AmpC-overproducing Escherichia coli over the course of 5 days (120 h). Mice were inoculated by intraperitoneal injection with AmpC-overproducing Escherichia coli strain 4 (1±0.5 10^9 colony-forming units) and treated at 0.5, 3.5, 6.5 h after infection by intraperitoneal injection of 50 mg/kg imipenem (□, n=20), 50:200 mg/kg cefotaxime:CR161 combination (▪, n=17), 50 mg/kg cefotaxime (●, n=20) or sterile isotonic saline (◯, n=20).
Efficacy in a mouse model of infection. We had not observed such substantial reversal of bacterial resistance to β-lactams, across such a broad spectrum of clinical isolates, for previous series of boronic acid inhibitors of β-lactamase; indeed, this lack of efficacy had motivated this study. These new cell-culture MIC values inspired us to investigate the efficacy of one of these compounds in a mouse model of bacteremia and sepsis. […] Mice were treated with cefotaxime alone, cefotaxime combined with compound CR161, with sterile isotonic saline, and with imipenem as a reference treatment of systemic infections by cephalosporin-resistant enterobacteriaceae (FIG. 17); 20 mice were used in each clade. […]
OF1 mice 4-5 weeks of age and weighing 20-25 g were used in this study. […] The survival of mice in each group was monitored every 6 h for 5 days after infection. […]

`CC(C)(O/N=C(\C(=O)N[C@@H]1C(=O)N2C(C(=O)[O-])=C(C[n+]3ccccc3)CS[C@H]12)c1csc(N)n1)C(=O)O` [Ceftazidime] was tested, and the “MIC, cephalosporin alone” value [1] was 32 µg/mL, the “MIC, cephalosporin alone” value [2] was 2 µg/mL and the “MIC, cephalosporin alone” value [3] was 64 µg/mL. For the same compound, the “MIC, cephalosporin alone” value [4] was 64 µg/mL, the “MIC, cephalosporin alone” value [5] was 64 µg/mL and the “MIC, cephalosporin alone” value [6] was 2 µg/mL. For the same compound, the “MIC, cephalosporin alone” value [7] was 64 µg/mL, the “MIC, cephalosporin alone” value [8] was 8 µg/mL and the “MIC, cephalosporin alone” value [9] was 128 µg/mL. For the same compound, the “MIC, cephalosporin alone” value [10] was 32 µg/mL, the “MIC, cephalosporin alone” value [11] was 128 µg/mL and the “MIC, cephalosporin alone” value [12] was 32 µg/mL. For the same compound, the “MIC, cephalosporin alone” value [13] was 256 µg/mL, the “MIC, cephalosporin alone” value [14] was 64 µg/mL and the “MIC, cephalosporin alone” value [15] was 128 µg/mL. For the same compound, the “MIC, cephalosporin alone” value [16] was 64 µg/mL, the “MIC, cephalosporin alone” value [17] was 32 µg/mL and the “MIC, cephalosporin alone” value [18] was 32 µg/mL. The “MIC, cephalosporin alone” value [19] was 128 µg/mL, the “MIC, cephalosporin alone” value [20] was 64 µg/mL and the “MIC, cephalosporin alone” value [21] was 512 µg/mL.
For `C[C@@H](O)[C@H]1C(=O)N2C(C(=O)O)=C(SCCN=CN)C[C@H]12` [Imipenem, imipenem], the survival [22] was 90%.
